Converted amounts (≈) assume the structure as drawn.
What follows are compounds tested on H1N1-TR (Tamiflu resistant virus strain) (assay: microbe, parasite or virus in culture). Conditions: unidentified influenza virus, H1N1, read-out: MIC, H1N1-TR.
Format: cell-based
With `COc1cc2c(cc1O)C(=O)[C@@H](C)[C@@H](C)[C@@H]2c1ccc(OC)c(OC)c1` [Schisandrone] the MIC was 6.25 µg/mL (≈ 17.5 µM).
`NC(=O)c1ncn([C@@H]2O[C@H](CO)[C@@H](O)[C@H]2O)n1` [Ribavirin, ribavirin, reference compound] gave an MIC of 3.12 µg/mL (≈ 12.8 µM).
For `C/C=C(\C)C(=O)O[C@H]1c2cc(OC)c(OC)c(OC)c2-c2c(cc3c(c2OC)OCO3)C[C@H](C)[C@@]1(C)O` (atropisomer, axis not shown) [Tigloylgomisin P], the MIC was 75 µg/mL (≈ 146 µM).
For `COc1cc2c(c(OC)c1OC)-c1c(cc3c(c1OC)OCO3)C[C@H](C)[C@@](C)(O)[C@H]2OC(=O)c1ccccc1` (atropisomer, axis not shown) [Benzoylgomisin P], the MIC was 12.5 µg/mL (≈ 23.3 µM).
Compound `COc1cc([C@@H]2c3cc(OC)c(O)cc3C(=O)[C@H](C)[C@H]2C)ccc1O` [Epiwulignan A1] has an MIC of 12.5 µg/mL (≈ 36.5 µM).
`COc1cc([C@@H]2c3cc(OC)c(O)cc3C(=O)[C@@H](C)[C@H]2C)ccc1O` [Wulignan A1] gave an MIC of 12.5 µg/mL (≈ 36.5 µM).

From patent US8414938B2, “Schisandrae fructus extracts for inhibition or prevention of H1N1 influenza virus infection and its application thereof” (National Defense Medical Center, priority 2011, dated 2013)
